Measured values: patent US20080226605A1, “Methods and Compositions Facilitating Entry of Compounds Into Cells” (priority 2005, published 2008)

Assays:
Assay type in all cases: cell-based, Human
[1] = system: DU145 cells; experiment: EGFP reporter uptake (pEGFP transfection, flow cytometry)
Procedure: (§1) Cell culture. Human prostate cancer cells DU145 were grown in RPMI 1640 medium, supplemented with 10% heat-inactivated fetal bovine serum (Life Technologies) under standard conditions (Carbone et al., Nucleic Acids Res. 2003, 31, 833-843; Carbone et al., Nucleic Acids Res 2004, 32, 4358-4367).
EGFP reporter uptake. DU145 cells were plated in 6-well plates at a density of 1.5×10^5 cells/well, grown overnight and then transfected. Trasfection mixtures contained 4 μg of pEGFP reporter plasmid with or without addition of neomycin and DOTAP at a 1:5 ratio as described above. Cells were incubated with the transfection complexes for 5 hours, then the medium was removed and replaced with fresh medium. After 24 hours, cells were harvested […], recovered by centrifugation, washed once with PBS, and then analyzed using a FACSCalibur (Becton Dickinson). Data were analyzed using Cell Quest software.
The effects of neomycin on transfection efficiency were further examined using another reporter system, a plasmid expressing green fluorescent protein, the pEGFP reporter vector. DU145 cells were transfected with the pEGFP plasmid in the presence of DOTAP, neomycin or both DOTAP and neomycin. After 24 hours, cells were collected and analyzed for EGFP expression by flow cytometry to examine both fluorescence intensity and percentage of EGFP-positive cells. […]

[2] = system: DU145 cells; experiment: Cellular uptake of fluorescein-labeled oligonucleotide (F-TFO), flow cytometry; details: F-TFO 125 nM; for percentage of fluorescein-positive cells: neomycin 5 μM where present
Procedure: as §1
Oligonucleotides and other reagents. The fluorescein-conjugated phosphorothioate oligonucleotide (F-TFO) was purchased from Sigma. The oligonucleotide was purified by high-performance liquid chromatography (HPLC). The sequence of the F-TFO, which is identical to the Ets2-TFO, has been published previously (Carbone et al., Nucleic Acids Res. 2003, 31, 833-843). Stock solutions of oligonucleotides were made in sterile water. Oligonucleotide concentrations were determined with a spectrophotometer using appropriate nucleotide extinction coefficients. DOTAP (1,2-dioleoyl-3-trimethyl-ammonium-propane) was purchased from Roche (Indianapolis, Ind.). Neomycin was purchased from Sigma, and used as described previously (Arya et al., J. Am. Chem. Soc. 2003, 125, 3733-3744).
Cellular uptake of oligonucleotides. Uptake of F-TFO and dauno-GT11 was examined 24 hours after transfection of DU145 cells (1.5×10^5 cells/well in 6-well plates) with DOTAP with or without the addition of neomycin as described above. Concentration of F-TFO was 125 nM, corresponding to about 1 μg of DNA/well. After 24 hours, cells were washed and analyzed using a FACSCalibur as described above.
Neomycin positively affected transfection efficiency of plasmid DNA mediated by DOTAP. This effect could be mediated by an increase in intracellular uptake and/or by an enhanced release of DNA from lipid complex into the cytoplasm. […] For the tests shown in FIG. 3, a phosporothioate oligonucleotide directed to the Ets2 gene promoter (Ets2-TFO) was conjugated at the 5′ end with fluorescein (Carbone et al., Nucleic Acids Res. 2003, 31, 833). Cells were transfected with the fluorescein labeled TFO (F-TFO) for 6 hours and then incubated for 24 hours in fresh medium before the analysis by flow cytometry. At the concentration used in the test, only about 7% of cells were fluorescein-positive when transfected with DOTAP alone. The percentage of fluorescein-positive cells increased to about 50% when the oligonucleotide was delivered using the combination of DOTAP and neomycin. Therefore, neomycin enhanced uptake of the F-TFO by approximately 7-fold.

[3] = system: DU145 cells; experiment: Luciferase reporter assay (transfection of reporter plasmids); details: neomycin added to the medium after the transfection
Procedure: as §1
Reporter plasmids. The reporter plasmid pGL3-Ets2 containing the firefly luciferase gene under control of Ets2 promoter has been previously described (Carbone et al., Nucleic Acids Res 2004, 32, 4358-4367). The pRL-SV40 reporter plasmid was purchased from Promega. The pEGFP plasmid was obtained from Clontech.
Luciferase reporter assay. DU145 cells were plated in 48-well plates at a density of 1.5×10^4 cells/well. After 24 hours, cells were transfected with DOTAP-DNA complexes as previously described (Carbone et al., Nucleic Acids Res. 2003, 31, 833-843). […] Mixtures of DNA-DOTAP and DNA-DOTAP-neomycin were allowed to sit at room temperature for 15 minutes for complex formation. […] Luciferase activity was measured with the Luciferase assay system from Promega.
The effects of neomycin in combination with the cationic lipid preparation DOTAP on the uptake of luciferase reporter plasmids was determined. […] The efficiency of transfection as assessed by the luciferase assay increased as the concentration of neomycin increased from 0.5 to 5 μM (FIG. 1A). […]

[4] = flow cytometry 24 hours after transfection

Row | Compound | efficiency of DNA uptake ([1]; pEGFP plasmid, neomycin alone (5 μM), without DOTAP) | percentage of fluorescein-positive cells [2, 4] | oligonucleotide uptake ([2]; neomycin alone (5 μM), without DOTAP) | effect on luciferase reporter activity [3] | mean fluorescent intensity (EGFP) ([1]; pEGFP plasmid 4 μg, flow cytometry after 24 hours) | mean fluorescent intensity (F-TFO) [2, 4]
1 | neomycin | marginally affected | 2.4% | did not affect | No effect | – | –
2 | CCCCCCCC/C=C\CCCCCCCC(=O)OCC(C[N+](C)(C)C)OC(=O)CCCCCCC/C=C\CCCCCCCC (stereo not shown) [DOTAP, 1,2-dioleoyl-3-trimethyl-ammonium-propane] | – | about 7% | – | – | 27.8 | 19.4
